Experiments:
P. aeruginosa PA14 = experiment: MIC assay; assay type: cell-based, Pseudomonas aeruginosa; conditions: Pseudomonas aeruginosa; P. aeruginosa PA14; read-out: Minimum inhibitory concentration
From the text: Bacterial strains, growth conditions, and persister isolation. Methicillin-resistant S. aureus strains, MW2 BAA-1707, ATCC 33591, and JE2, methicillin-susceptible S. aureus strains, NCTC 8325, Newman, and ATCC 29213, vancomycin-resistant S. aureus strain, VRS1, Enterococcus faecium E007, vancomycin-resistant E. faecium strains, C68,^7 WB312, and WC196, Klebsiella pneumoniae WGLW2 (BEI Resources, Manassas, Va., USA), Acinetobacter baumannii ATCC 17978, Pseudomonas aeruginosa PA14, and Enterobacter aerogenes ATCC 13048 were used to test antimicrobial activity (Table 1). S. aureus strains were grown in tryptic soy broth (TSB) (BD, Franklin Lakes, N.J., USA), and E. faecium was grown in brain-heart infusion (BHI) broth (BD, Franklin Lakes, N.J., USA) at 37° C. K. pneumoniae, A. baumannii, P. aeruginosa, and E. aerogenes were grown in Luria Bertani (LB) broth (BD, Franklin Lakes, N.J., USA) at 37° C.
Minimal inhibitory concentration (MIC) assay. The MICS of antibiotics were determined by the standard micro-dilution method recommended by the Clinical and Laboratory Standards Institute. MIC assays were conducted in biological triplicate.

MRSA MW2 = experiment: SYTOX Green membrane permeability assay; assay type: cell-based, S. aureus
Method: SYTOX Green membrane permeability assay. […] The washed cells were adjusted to OD600=0.4 with PBS. SYTOX Green (Molecular Probes, Waltham, Mass., USA) was added to 10 mL of the diluted bacterial suspension to a final concentration of 5 μM and incubated for 30 min at room temperature in the dark. 50 μL of the bacteria/SYTOX Green suspension was mixed with 50 μl of PBS containing twice the desired concentrations of compounds in black, clear-bottom, 96-well plates (Corning no. 3904). Fluorescence was measured at room temperature using a spectrophotometer (SpectraMax M2, Molecular Devices), with excitation and emission wavelengths of 485 nm and 525 nm, respectively. All experiments were conducted in biological triplicate.

GUVs DOPC/DOPG (7:3) = experiment: Giant unilamellar vesicles (GUVs), observation of compound effects; conditions: 4 μg/ml (1× MIC)
Method: Preparation of giant unilamellar vesicles (GUVs) and observation of compound effects on GUVs. GUVs were prepared by the electroformation method described previously. Dioleoyl-glycero-phosphocholine (DOPC), Dioleoyl-glycero-phosphoglycerol (DOPG) and Dioleoyl-glycero-phosphoethanolamine-N-lissamine rhodamine B sulfonyl (18:1 Liss Rhod PE) were purchased from Avanti Polar Lipids (Alabaster, Ala., USA). 4 mM of a lipid mixture consisting of DOPC/DOPG/18:1 Liss Rhod PE (7:3:0.005) was dissolved in chloroform. Indium tin oxide (ITO)-coated slides (50×75×1.1 mm, Delta Technologies, Loveland, Colo., USA) were coated with 40 μL of the lipid mixture and dried in a vacuum chamber for 2 h to remove chloroform. An electroformation chamber was made by placing a 2 mm thick Teflon spacer between the two lipid-coated ITO slides. After adding 2 mL of 100 mM sucrose into the electrofomation chamber, the chamber was sealed with binder clips, and then connected to an AC field function generator. The swelling of the lipid bilayers was facilitated by applying an electric AC-field (10 Hz). […] GUVs were detached from surfaces by reducing the AC-field from 10 Hz to 5 Hz for 20 min. The GUV suspension was diluted (1:30) in a 100 mM glucose solution. 49 μL of the diluted GUV suspension (˜100 vesicles) was added to a black, clear-bottom 384-well plate (Corning no. 3712). […]

## O=C(O)c1c(Sc2ccccc2)c2cc(Cl)ccc2n1Cc1ccc(Cl)cc1 [nTZDpa]
P. aeruginosa PA14
  MIC: > 64 µg/mL
MRSA MW2
  concentration of maximum SYTOX Green fluorescence: 16 µg/mL
GUVs DOPC/DOPG (7:3)
  time to formation of lipid aggregates on the surface of GUVs: 10 s
  time to rupture of GUVs: 60 s
